Measured values as given in ChEMBL document CHEMBL3046330, “Synthesis and biological activity of hydrazidehydrazones and their corresponding 3-acetyl-2,5-disubstituted-2,3-dihydro-1,3,4-oxadiazoles” (Med Chem Res, 2012).
In brackets after ≈: the same amount, converted by molar mass. Activity calls are given as the source filed them. The calls are words filed in the database; no cut-off is given here.

Assays:
Transcription factor Sp1 = Transcription factor Sp1 (Homo sapiens, UniProt P08047); assay: Inhibition of Sp1 (unknown origin) up to 25 ug/ml by luciferase reporter gene assay
Transcription factor Sp1, sequence (P08047 whole entry): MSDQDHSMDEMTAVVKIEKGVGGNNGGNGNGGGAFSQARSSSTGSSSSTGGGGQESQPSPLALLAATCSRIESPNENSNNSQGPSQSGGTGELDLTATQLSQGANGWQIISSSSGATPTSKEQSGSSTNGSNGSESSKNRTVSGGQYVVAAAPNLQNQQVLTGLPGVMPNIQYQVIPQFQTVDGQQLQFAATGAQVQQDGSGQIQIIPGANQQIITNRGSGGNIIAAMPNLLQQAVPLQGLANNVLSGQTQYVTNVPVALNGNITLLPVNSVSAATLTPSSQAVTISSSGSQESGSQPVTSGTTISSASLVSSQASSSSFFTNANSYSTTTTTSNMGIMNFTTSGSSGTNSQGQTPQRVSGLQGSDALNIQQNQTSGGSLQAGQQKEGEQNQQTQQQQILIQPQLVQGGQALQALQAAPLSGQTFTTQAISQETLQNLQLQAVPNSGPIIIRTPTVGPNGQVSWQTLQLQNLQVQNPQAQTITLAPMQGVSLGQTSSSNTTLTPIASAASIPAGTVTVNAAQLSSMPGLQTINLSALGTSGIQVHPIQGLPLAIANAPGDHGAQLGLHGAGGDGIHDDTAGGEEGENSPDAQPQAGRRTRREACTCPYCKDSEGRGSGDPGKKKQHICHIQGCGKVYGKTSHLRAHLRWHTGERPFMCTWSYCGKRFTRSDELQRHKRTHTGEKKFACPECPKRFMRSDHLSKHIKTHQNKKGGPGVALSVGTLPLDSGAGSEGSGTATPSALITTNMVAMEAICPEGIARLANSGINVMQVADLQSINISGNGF

[1] = target: T1, Nitric oxide synthase, inducible (Mus musculus) (UniProt P29477); assay: Inhibition of iNOS in Mus musculus (mouse) RAW264.7 cells assessed as inhibition of LPS-induced nitrite production up to 25 ug/ml incubated for 30 min prior to LPS challenge measured after 24 hr by Griess assay relative to vehicle-treated control; assay type: cell-based
T1 sequence (whole entry): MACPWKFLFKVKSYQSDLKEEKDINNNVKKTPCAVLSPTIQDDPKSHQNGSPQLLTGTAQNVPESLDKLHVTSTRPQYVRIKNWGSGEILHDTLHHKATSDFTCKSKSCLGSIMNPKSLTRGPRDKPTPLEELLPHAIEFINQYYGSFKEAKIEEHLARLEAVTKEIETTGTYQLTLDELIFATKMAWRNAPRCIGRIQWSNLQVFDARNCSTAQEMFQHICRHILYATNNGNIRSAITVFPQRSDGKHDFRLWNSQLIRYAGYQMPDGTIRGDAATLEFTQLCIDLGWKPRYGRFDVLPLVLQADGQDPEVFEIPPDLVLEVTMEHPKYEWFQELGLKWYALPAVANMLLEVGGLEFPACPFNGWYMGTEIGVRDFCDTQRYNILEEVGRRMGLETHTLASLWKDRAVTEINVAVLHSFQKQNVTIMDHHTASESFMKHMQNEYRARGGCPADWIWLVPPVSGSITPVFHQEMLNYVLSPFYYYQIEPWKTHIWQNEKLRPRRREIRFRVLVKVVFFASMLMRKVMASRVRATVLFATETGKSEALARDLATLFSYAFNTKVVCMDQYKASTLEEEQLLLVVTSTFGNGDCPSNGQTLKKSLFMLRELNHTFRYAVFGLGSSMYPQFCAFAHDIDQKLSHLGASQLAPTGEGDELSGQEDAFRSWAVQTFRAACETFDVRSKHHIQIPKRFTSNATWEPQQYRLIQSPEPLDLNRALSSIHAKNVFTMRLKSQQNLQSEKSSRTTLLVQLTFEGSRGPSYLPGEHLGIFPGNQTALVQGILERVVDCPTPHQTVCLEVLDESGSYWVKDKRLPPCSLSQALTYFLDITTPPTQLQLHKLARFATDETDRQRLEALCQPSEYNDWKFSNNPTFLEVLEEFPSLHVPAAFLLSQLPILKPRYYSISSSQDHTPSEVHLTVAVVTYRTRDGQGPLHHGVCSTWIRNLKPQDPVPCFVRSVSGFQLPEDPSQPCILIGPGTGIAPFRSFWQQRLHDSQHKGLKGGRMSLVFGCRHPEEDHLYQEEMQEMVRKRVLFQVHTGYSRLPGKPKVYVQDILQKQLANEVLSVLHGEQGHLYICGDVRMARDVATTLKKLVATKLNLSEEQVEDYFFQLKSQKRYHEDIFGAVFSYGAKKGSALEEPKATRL

SK-OV-3 = assay: Cytotoxicity against Homo sapiens (human) SKOV3 cells assessed as cell viability up to 25 ug/ml after 48 hr by neutral red assay; assay type: functional, cell-based
Candida albicans [2] = assay: Antifungal activity against Candida albicans ATCC 90028 after 24 hr by NCCLS broth microdilution method; assay type: functional; details: ATCC 90028, 24 h
Nakaseomyces glabratus = assay: Antifungal activity against Candida glabrata clinical isolate after 24 hr by NCCLS broth microdilution method; assay type: functional
Pichia kudriavzevii = assay: Antifungal activity against Pichia kudriavzevii NRRL Y-7179 after 24 hr by NCCLS broth microdilution method; assay type: functional; details: NRRL Y-7179, 24 h
HL-60 [3] = assay: Cytotoxicity against Homo sapiens (human) HL60 cells; assay type: cell-based
HL-60 [4] = assay: Antioxidant activity in PMA-stimulated Homo sapiens (human) HL60 cells assessed as inhibition of intracellular ROS generation up to 25 ug/ml incubated for 30 min prior to PMA stimulation measured after 30 min by DCFH-DA assay relative to vehicle-treated control; assay type: functional, cell-based
Candida albicans [5] = assay: Antifungal activity against Candida albicans clinical isolate after 24 hr by NCCLS broth microdilution method; assay type: functional
Vero = assay: Cytotoxicity against Chlorocebus aethiops (African green monkey) Vero cells assessed as cell viability up to 25 ug/ml after 48 hr by neutral red assay; assay type: cell-based; details: chlorocebus sabaeus
SW1353 = assay: Inhibition of PMA-induced NFkappaB activity in Homo sapiens (human) SW1353 cells up to 25 ug/ml incubated for 30 min followed by PMA induction for 8 hr by luciferase reporter gene assay; assay type: cell-based
Candida parapsilosis = assay: Antifungal activity against Candida parapsilosis NRRL Y-12696 after 24 hr by NCCLS broth microdilution method; assay type: functional; details: Lodderomyces parapsilosis, NRRL Y-12696, 24 h
Fusarium oxysporum = assay: Antifungal activity against Fusarium oxysporum assessed as growth inhibition at 30 uM after 72 hr by broth microdilution method; assay type: functional; details: read-out: GI
Colletotrichum fragariae = assay: Antifungal activity against Colletotrichum fragariae at 0.3 to 30 uM after 48 to 72 hr by broth microdilution method; assay type: functional, organism-based
SK-MEL = assay: Cytotoxicity against Homo sapiens (human) SK-MEL cells assessed as cell viability up to 25 ug/ml after 48 hr by neutral red assay; assay type: functional, cell-based
Colletotrichum acutatum = assay: Antifungal activity against Colletotrichum acutatum assessed as growth inhibition at 30 uM after 72 hr by broth microdilution method; assay type: functional; details: read-out: GI
Candida albicans [6] = assay: Antifungal activity against Candida albicans clinical isolate at 2000 ug/ml by agar diffusion method; assay type: functional; details: read-out: IZ
Candida tropicalis [7] = assay: Antifungal activity against Candida tropicalis NRRL Y-12968 at 2000 ug/ml by agar diffusion method; assay type: functional; details: read-out: IZ
BT-549 = assay: Cytotoxicity against Homo sapiens (human) BT549 cells assessed as cell viability up to 25 ug/ml after 48 hr by neutral red assay; assay type: functional, cell-based
Candida albicans [8] = assay: Antifungal activity against Candida albicans NRRL Y-12983 after 24 hr by NCCLS broth microdilution method; assay type: functional; details: NRRL Y-12983, 24 h
Candida tropicalis [9] = assay: Antifungal activity against Candida tropicalis NRRL Y-12968 after 24 hr by NCCLS broth microdilution method; assay type: functional; details: NRRL Y-12968, 24 h
Cyberlindnera jadinii = assay: Antifungal activity against Cyberlindnera jadinii NRRL Y-900 after 24 hr by NCCLS broth microdilution method; assay type: functional; details: Williopsis jadinii, NRRL Y-900, 24 h
[10] = system: Colletotrichum gloeosporioides; assay: Antifungal activity against Colletotrichum gloeosporioides assessed as growth inhibition at 30 uM after 72 hr by broth microdilution method; assay type: functional; details: read-out: GI
Botrytis cinerea = assay: Antifungal activity against Botryotinia fuckeliana at 0.3 to 30 uM after 48 to 72 hr by broth microdilution method; assay type: functional, organism-based
KB = assay: Cytotoxicity against Homo sapiens (human) KB cells assessed as cell viability up to 25 ug/ml after 48 hr by neutral red assay; assay type: functional, cell-based
Phomopsis obscurans = assay: Antifungal activity against Phomopsis obscurans assessed as growth inhibition at 30 uM after 144 hr by broth microdilution method; assay type: functional; details: Paraphomopsis obscurans, read-out: GI
[11] = Cytotoxicity against Sus scrofa (pig) LLC-PK11 cells assessed as cell viability up to 25 ug/ml after 48 hr by neutral red assay; assay type: cell-based; details: llc-pk11, 48 h
RAW264.7 = assay: Cytotoxicity against Mus musculus (mouse) RAW264.7 cells up to 25 ug/ml; assay type: cell-based

With CC(=O)N1N=C(c2ccc(F)cc2)OC1c1ccc(Br)s1 (stereo not drawn) the “inhibition (INH)” value (Transcription factor Sp1) was “Not Active”, the inhibition [1] was “inactive” and the Activity (SK-OV-3) was “inactive”. It also gave an MIC (Candida albicans [2]) greater than 1000 µg/mL, an MIC (Nakaseomyces glabratus) greater than 1000 µg/mL and an MIC (Pichia kudriavzevii) greater than 1000 µg/mL. For the same molecule, the IC50 (HL-60 [3]) was 5.9 µg/mL (≈ 16 µM), the inhibition (HL-60 [4]) was “inactive” and the MIC (Candida albicans [5]) was greater than 1000 µg/mL. The Activity (Vero) was “Not Active”, the inhibition (SW1353) was “inactive” and the MIC (Candida parapsilosis) was greater than 1000 µg/mL. For the same molecule, the inhibition of growth at 30 µM (Fusarium oxysporum) was 67%, the Activity (Colletotrichum fragariae) was “inactive” and the Activity (SK-MEL) was “inactive”. It also gave an inhibition of growth at 30 µM (Colletotrichum acutatum) of 49%, a zone of inhibition at 2000 µg/mL (Candida albicans [6]) of 9 mm and a zone of inhibition at 2000 µg/mL (Candida tropicalis [7]) of 9 mm. For the same molecule, the Activity (BT-549) was “inactive”, the MIC (Candida albicans [8]) was greater than 1000 µg/mL and the MIC (Candida tropicalis [9]) was greater than 1000 µg/mL. The MIC (Cyberlindnera jadinii) was greater than 1000 µg/mL, the inhibition of growth at 30 µM [10] was 66% and the Activity (Botrytis cinerea) was “inactive”. The Activity (KB) was “inactive”, the inhibition of growth at 30 µM (Phomopsis obscurans) was 65% and the Activity [11] was “Not Active”. For the same molecule, the Activity (RAW264.7) was “Non-toxic”.
